{
  "source": "patent US20080070237A1",
  "about": "“Npas3 Mutant Mice and Uses for Screening and Testing Therapies for Schizophrenia and Related Neurological Disorders” (priority 2003, published 2008)",
  "key": {"Npas3−/− mice": {"test_system": "Npas3−/− mice", "format": "in vivo, mouse", "experimental": "(§1) Locomotor Activity Tests. For all locomotor experiments, activity is measured in a 41×41×30 cm Omnitech Digiscan activity monitor equipped with 16 pairs of photodetector-LED beams along the x and y axis. (Accuscan Electronics, Columbus, Ohio). […] After the acclimation period, Baseline Locomoter Activity Test results are recorded for each test mouse. Subsequently, locomotor activity is tested following pharmacological challenges of three neurotransmitter pathways involved in schizophrenia and other neurological disorders. The pathways and the drugs used to challenge each include:\n(§2) a. Methamphetamine (a dopamine pathway agonist) 1.0 mg/kg in the form of D-methamphetamine-HCL (Sigma; St. Louis, Mo.). Methamphetamine is a strong dopamine agonist that will activate D1 and D2 receptor signaling.\n(§3) b. Haloperidol (a dopamine pathway antagonist) 0.3 mg/kg or 1.0 mg/kg (Tocris; Ellisville, Mo.).\n(§4) The test drug is 0.3 mg/kg clozapine (Sigma; St. Louis, Mo.). An atypical neuroleptic agent, clozapine, which has a high affinity for serotonin 5-HT2 and 5-HT6 receptors, is administered to determine the involvement of serotonergic pathways. Although clozapine can also antagonize both D1 and D2-like receptors, ten times higher concentrations are necessary to inhibit dopamine-dependent hyperactivity\n(§5) The test drugs are 1.0 mg/kg MK-801 or 0.3 mg/kg MK-801 (ICN Biomedicals Inc.; Aurora, Ohio). MK-801 is a noncompetitive NMDA receptor antagonist.\n(§6) Each drug is administered in a subcutaneous injection volume of 5 mL/kg body weight. Post-challenge activity is measured for three hours. Horizontal activity counts (scored by visual observance or breaking a light beam) and total distance are recorded during the pre- and post-challenge periods at 3-minute intervals with VersaMax software. All Locomoter Activity Tests are performed on mice at 7-9 weeks of age, with n=12. All values are expressed as mean±SEM. Statistical analyses are performed using appropriate analysis of variance (ANOVA) followed by adapted post hoc comparisons."}, "Npas3+/+ control mice": {"test_system": "Npas3+/+ control mice", "format": "in vivo, mouse", "experimental": "as §1, §2, §3, §4, §5, §6"}, "[1]": {"conditions": "FIG. 28 dose of MK-801 (not stated at the place; b105: 1.0 or 0.3 mg/kg), subcutaneous"}, "[2]": {"conditions": "FIG. 28 dose of MK-801, subcutaneous"}, "[3]": {"conditions": "lower dose 0.1 mg/kg, data not shown"}, "[4]": {"conditions": "1.0 mg/kg subcutaneous, post-challenge activity measured for three hours"}, "[5]": {"conditions": "0.3 mg/kg subcutaneous, post-challenge activity measured for three hours"}},
  "note": "Structures can show the parent of a compound that is named as a salt. Where two headings read alike, the source gives them in different places.",
  "data": [
    {"smiles": "C[C@]12N[C@H](Cc3ccccc31)c1ccccc12", "note": "[MK-801]", "values": [
      {"measurement": "horizontal locomotor activity after drug challenge", "setting": "Npas3−/− mice; [1]", "result": "dramatic suppression of locomotor activity"},
      {"measurement": "stereotype (stereotypy) after drug challenge", "setting": "Npas3−/− mice; [2]", "result": "induced hyperstereotype"},
      {"measurement": "locomotor activity after drug challenge", "setting": "Npas3−/− mice; [3]", "result": "potently activated locomotion"},
      {"measurement": "horizontal locomotor activity after drug challenge", "setting": "Npas3+/+ control mice; [1]", "result": "increased locomotor activity"},
      {"measurement": "stereotype (stereotypy) after drug challenge", "setting": "Npas3+/+ control mice; [2]", "result": "did not increase the levels of stereotype"},
      {"measurement": "locomotor activity after drug challenge", "setting": "Npas3+/+ control mice; [3]", "result": "did not induce hyperactivity"}
    ]},
    {"smiles": "CN[C@@H](C)Cc1ccccc1", "note": "[methamphetamine, D-methamphetamine-HCL]", "values": [
      {"measurement": "horizontal locomotor activity after drug challenge", "setting": "Npas3−/− mice; [4]", "result": "failure of methamphetamine to increase locomotor activity"},
      {"measurement": "horizontal locomotor activity after drug challenge", "setting": "Npas3+/+ control mice; [4]", "result": "increases locomotor behavior"}
    ]},
    {"smiles": "O=C(CCCN1CCC(O)(c2ccc(Cl)cc2)CC1)c1ccc(F)cc1", "note": "[haloperidol, Haloperidol]", "values": [
      {"measurement": "horizontal locomotor activity after drug challenge", "setting": "Npas3−/− mice; [5]", "result": "partial reduction in activity"},
      {"measurement": "horizontal locomotor activity after drug challenge", "setting": "Npas3+/+ control mice; [5]", "result": "substantial impairment in locomotor activity"}
    ]}
  ]
}
